Measured values reported in patent US20240277902A1, “METHOD FOR MANUFACTURING PERIPHERAL NERVE-MIMICKING MICROTISSUE AND USES THEREOF” (INNOSTEM BIO, priority 2021, published 2024).

System: constituent cells in the peripheral nerve-mimicking microtissue
Assay: Cytoprotection by NAC and DEX in suspension culture (LIVE/DEAD, immunofluorescence)
Type: cell-based
Details: 1 mM NAC, 3 days
Text: As a result of limitation in oxygen and nutrient exchange during the production process of peripheral nerve-mimicking microtissues, ROS accumulates in tissues, leading to cell damage and death. The Example is intended to present a cytoprotection method by dexamethasone (DEX) and N-acetylcysteine (NAC) to inhibit cell damage and death. PNSCs collected from the monolayer culture environment are suspended in a suspension culture medium at a density of 1.0E+06/mL. […] 1.0×10^5 cells per cm^2 area of a culture vessel is seeded in the ULA T75 flask (SPL Life Sciences) culture vessel. 1 mM NAC, 1 μM DEX, NAC and DEX were added simultaneously in 15 mL of suspension culture medium and cultured for 3 days. Cell death was assessed by LIVE/DEAD staining, and, for cell death, the survival rate was evaluated by calculating the total number of cells stained with DAPI and counting the number of cells that are positive for ethidium homodimer-1 (EthD-1). Moreover, the expression of p38 MAPK and cleaved caspase, which are factors that regulate cell death, and the degree of expression of p-Akt, an anti-cell death regulating factor, were evaluated through immunofluorescence staining.

CC(=O)N[C@@H](CS)C(=O)O [NAC, N-acetylcysteine]
cytoprotective effect on constituent cells in the microtissue (survival rate, LIVE/DEAD, EthD-1) (1 μM DEX, or both in suspension culture medium): protective effect | expression of Hif, p38 MAPK, and cleaved caspase (cell death proteins) (1 μM DEX, or both, immunofluorescence staining): significantly inhibit
